{"source": "patent US5462933A", "about": "“Modified bile acid conjugates, and their use as pharmaceuticals” (Hoechst Aktiengesellschaft, priority 1989, dated 1995)", "test": "In vivo perfused liver: absorption from portal vein blood and excretion into the bile", "set-up": "species or system rat", "settings": "after W-X-G (Example 67)", "protocol": "In order to investigate a selective absorption of bile acid derivatives into the liver and their hepatotropic action, the appropriate derivatives were injected as a bolus into a mesenteric vein of anesthetized rats and the excretion of these derivatives and the corresponding active compounds or active compound metabolites into the bile was analysed.\nMale Sprague-Dawley rats (300-500 g bodyweight) had their food withdrawn and received water ad libitum. After tracheotomy, the abdomen was opened by median section under urethane anesthesia ([…] i.m. urethane 30%). The pylorus was ligated and the bile duct was cannulated by advancing a polyethylene tube (d=0.05 mm) up to the liver and the bile was drained. The volume of secretion was measured at 15 minute intervals. After a preliminary period of 60 minutes, the substances (0.5 ml of a 1 mM solution in 0.9% NaCl solution) were administered into a mesenteric vein in the course of 30 sec and the bile was collected at prestated time intervals (2, 4, 6, 8, 10, 15, 20, 30, 40, 50, 60, 70, 80, 90, 100, 110 and 120 min). The bile acid derivative was administered first, and the appropriate active compound was administered after a collection period of 2 hours. 120 min after administration of test substance, the bladder volume was measured and the urine was also collected. The bile and urine samples were stored on ice during the experiment and then deep-frozen.\nEach 10 μl bile sample was applied to TLC plates (10×20 cm, silica gel 60 specific layer thickness 0.25 mm, No. 37581 Riedel de Haen, Seelze, Federal Republic of Germany) using Microcaps (Drummond, Broomall, USA) and the thin-layer plates were dried in the air for 20 min.\nThe plates were developed in the following mobile phases: Substance Mobile phase\nThe constituents of the mobile phases were bought from the usual manufacturers in the highest possible purity grade. After developing and drying the plates, the distribution of the active compounds and the bile acid derivatives, or their metabolites, was determined by densitometry (CD 50 densitometer, DESAGA; Heidelberg). Detection was carried out in reflection mode with linear sampling at the wavelengths 252 nm (chlorambucil/chlorambucil conjugate) or 260 nm (remaining substances).\nIn order to evaluate the chromatograms, the relative intensity of the bile acid derivatives, the active compounds or the active compound metabolites on a chromatogram was given in surface area units.", "data": [{"compound": "C[C@H](CCC(=O)NCCS(=O)(=O)O)[C@H]1CC[C@H]2[C@@H]3[C@H](O)C[C@@H]4C[C@@H](OCCNC(=O)CCCc5ccc(N(CCCl)CCCl)cc5)CC[C@]4(C)[C@H]3C[C@H](O)[C@]12C", "note": "[Example 67]", "values": [{"measurement": "(2) Conc. W-X-G in bile", "setting": "bile at 2 min", "result": 1207, "unit": "surface area units"}, {"measurement": "Total (1) + (2)", "setting": "bile at 2 min", "result": 1207, "unit": "surface area units"}, {"measurement": "(2) Conc. W-X-G in bile", "setting": "bile at 4 min", "result": 17803, "unit": "surface area units"}, {"measurement": "Total (1) + (2)", "setting": "bile at 4 min", "result": 17803, "unit": "surface area units"}, {"measurement": "(2) Conc. W-X-G in bile", "setting": "bile at 6 min", "result": 21762, "unit": "surface area units"}, {"measurement": "Total (1) + (2)", "setting": "bile at 6 min", "result": 21762, "unit": "surface area units"}, {"measurement": "(2) Conc. W-X-G in bile", "setting": "bile at 8 min", "result": 27280, "unit": "surface area units"}, {"measurement": "Total (1) + (2)", "setting": "bile at 8 min", "result": 27280, "unit": "surface area units"}, {"measurement": "(2) Conc. W-X-G in bile", "setting": "bile at 10 min", "result": 27346, "unit": "surface area units"}, {"measurement": "Total (1) + (2)", "setting": "bile at 10 min", "result": 27346, "unit": "surface area units"}, {"measurement": "(2) Conc. W-X-G in bile", "setting": "bile at 15 min", "result": 16673, "unit": "surface area units"}, {"measurement": "Total (1) + (2)", "setting": "bile at 15 min", "result": 16673, "unit": "surface area units"}, {"measurement": "(2) Conc. W-X-G in bile", "setting": "bile at 20 min", "result": 10748, "unit": "surface area units"}, {"measurement": "Total (1) + (2)", "setting": "bile at 20 min", "result": 10748, "unit": "surface area units"}, {"measurement": "(2) Conc. W-X-G in bile", "setting": "bile at 30 min", "result": 5375, "unit": "surface area units"}, {"measurement": "Total (1) + (2)", "setting": "bile at 30 min", "result": 5375, "unit": "surface area units"}, {"measurement": "(2) Conc. W-X-G in bile", "setting": "bile at 40 min", "result": 1273, "unit": "surface area units"}, {"measurement": "Total (1) + (2)", "setting": "bile at 40 min", "result": 1273, "unit": "surface area units"}, {"measurement": "(2) Conc. W-X-G in bile", "setting": "bile at 50 min", "result": 828, "unit": "surface area units"}, {"measurement": "Total (1) + (2)", "setting": "bile at 50 min", "result": 828, "unit": "surface area units"}, {"measurement": "(2) Conc. W-X-G in bile", "setting": "bile at 60 min", "result": 633, "unit": "surface area units"}, {"measurement": "Total (1) + (2)", "setting": "bile at 60 min", "result": 633, "unit": "surface area units"}, {"measurement": "(2) Conc. W-X-G in bile", "setting": "bile at 70 min", "result": 826, "unit": "surface area units"}, {"measurement": "Total (1) + (2)", "setting": "bile at 70 min", "result": 826, "unit": "surface area units"}, {"measurement": "(2) Conc. W-X-G in bile", "setting": "bile at 80 min", "result": 635, "unit": "surface area units"}, {"measurement": "Total (1) + (2)", "setting": "bile at 80 min", "result": 635, "unit": "surface area units"}, {"measurement": "(2) Conc. W-X-G in bile", "setting": "bile at 90 min", "result": 638, "unit": "surface area units"}, {"measurement": "Total (1) + (2)", "setting": "bile at 90 min", "result": 638, "unit": "surface area units"}, {"measurement": "(2) Conc. W-X-G in bile", "setting": "bile at 100 min", "result": 559, "unit": "surface area units"}, {"measurement": "Total (1) + (2)", "setting": "bile at 100 min", "result": 559, "unit": "surface area units"}, {"measurement": "(2) Conc. W-X-G in bile", "setting": "bile at 110 min", "result": 408, "unit": "surface area units"}, {"measurement": "Total (1) + (2)", "setting": "bile at 110 min", "result": 408, "unit": "surface area units"}, {"measurement": "(2) Conc. W-X-G in bile", "setting": "bile at 120 min", "result": 383, "unit": "surface area units"}, {"measurement": "Total (1) + (2)", "setting": "bile at 120 min", "result": 383, "unit": "surface area units"}]}]}
